Test results from patent US11530227B2, “Heterocyclic compounds and their use in preventing or treating bacterial infections” (MUTABILIS, priority 2018, dated 2022).
Counter-ions that a name gives are not always drawn. Like-named read-outs stand apart in the source and are kept apart here.

Columns and labels:
[1] = biological target: T1, TEM-1 (Escherichia coli, UniProt P62593); assay: β-lactamase inhibitory activity, nitrocefin hydrolysis; assay type: biochemical
T1 construct: made in house; host or cells: E. coli

[2] = biological target: T2, SHV-1 (Klebsiella pneumoniae, UniProt P0AD64); assay: biochemical
T2 construct: made in house; host or cells: E. coli

[3] = biological target: T3, CTX-M-15 (Escherichia coli, UniProt Q9EXV5); assay: biochemical
T3 construct: made in house; host or cells: E. coli

[4] = biological target: T4, KPC-2 (Klebsiella pneumoniae, UniProt Q9F663); assay: biochemical
T4 construct: made in house; host or cells: E. coli

[5] = biological target: T5, AmpC P. aeruginosa (Pseudomonas aeruginosa, UniProt P24735); assay: biochemical
T5 construct: made in house; host or cells: E. coli

[6] = biological target: T6, OXA-1 (Escherichia coli, UniProt P13661); assay: biochemical
T6 construct: made in house; host or cells: E. coli

[7] = biological target: T7, OXA-11 (Pseudomonas aeruginosa, UniProt Q06778); assay: biochemical
T7 construct: made in house; host or cells: E. coli

[8] = biological target: T8, OXA-15 (Pseudomonas aeruginosa, UniProt Q51574); assay: biochemical
T8 construct: made in house; host or cells: E. coli

[9] = biological target: T9, OXA-48 (Klebsiella pneumoniae, UniProt Q6XEC0); assay: biochemical
T9 construct: made in house; host or cells: E. coli

[10] = biological target: P99 AmpC (Enterobacter cloacae, UniProt P05364); assay: biochemical
[11] = test system: E. coli ECO 190317; assay: MIC of compounds alone, broth microdilution (CLSI); conditions: Escherichia coli, ECO190317, read-out: MIC alone
[12] = class (A), nitrocefin 200 μM, 30 min pre-incubation, room temperature, read-out: BLA IC50 TEM-1
[13] = class (A), nitrocefin 200 μM, 30 min pre-incubation, room temperature, read-out: BLA IC50 CTX-M-15
[14] = class (A), nitrocefin 200 μM, 30 min pre-incubation, room temperature, read-out: BLA IC50 KPC-2
[15] = class (D), nitrocefin 200 μM, 30 min pre-incubation, room temperature, read-out: BLA IC50 OXA-1
[16] = class (D), nitrocefin 200 μM, 30 min pre-incubation, room temperature, read-out: BLA IC50 OXA-48
[17] = class (C), nitrocefin 200 μM, 30 min pre-incubation, room temperature, read-out: BLA IC50 AmpC (PAE)

SMILES	IC50 [1, 12] [nM]	IC50 [2] [nM]	IC50 [3, 13] [nM]	IC50 [4, 14] [nM]	IC50 [5] [nM]	IC50 [6, 15] [nM]	IC50 [7] [nM]	IC50 [8] [µM]	IC50 [9, 16] [nM]	IC50 [10] [nM]	MIC [11] [µg/mL]	IC50 [5, 17] [nM]	IC50 [1] [nM]	IC50 [3] [nM]	IC50 [4] [nM]	IC50 [6] [nM]	IC50 [9] [nM]
CCOC(=O)[C@@H]1c2c(sc3ccccc23)[C@@H]2CN1C(=O)N2OS(=O)(=O)[O-].[Na+] (relative stereo) [Example 2, sulfate]	0.22	0.43	2.6	0.94	2.5	37	2.2	0.83	0.66	0.51							
CCOC(=O)[C@@H]1c2c(sc3ccccc23)[C@@H]2CN1C(=O)N2OS(=O)(=O)[O-].[Na+] (relative stereo) [Example 2]											> 32						
NC(=O)[C@@H]1c2c(sc3ccccc23)[C@@H]2CN1C(=O)N2OS(=O)(=O)[O-].[Na+] (relative stereo) [Example 3, sulfate]	1.3	2.2	2.5	9.3		190	31	7.1	4.8	4.5		62					
NC(=O)[C@@H]1c2c(sc3ccccc23)[C@@H]2CN1C(=O)N2OS(=O)(=O)[O-].[Na+] (relative stereo) [Example 3]											8						
CCOC(=O)[C@@H]1c2c(n(C)c3ccccc23)[C@@H]2CN1C(=O)N2OS(=O)(=O)[O-].[Na+] (relative stereo) [Example 6, sulfate]	0.2	0.25	1.5	4.2		1300	160	6.5	4.6	2		3.6					
CCOC(=O)[C@@H]1c2c(n(C)c3ccccc23)[C@@H]2CN1C(=O)N2OS(=O)(=O)[O-].[Na+] (relative stereo) [Example 6]											> 32						
CC(C)(O/N=C(\C(=O)N[C@@H]1C(=O)N2C(C(=O)[O-])=C(C[n+]3ccccc3)CS[C@H]12)c1csc(N)n1)C(=O)O [CAZ, Ceftazidime, reference compound]											128						
O=C1N2Cc3c(sc4ccccc34)C(C2)N1OS(=O)(=O)[O-].[Na+] (stereo not drawn) [Example 1, Sodium (2,5-methano-3-oxo-1,5-dihydrobenzothiopheno[2,3-e][1,3]diazepin-4-yl) sulfate]	0.65	4.1	1	26	8.8	120	41	3.4	1.1	17	16						
O=C1N2Cc3nc4ccccc4cc3C(C2)N1OS(=O)(=O)[O-].[Na+] (stereo not drawn) [Example 4, sodium 1,4-methano-3-oxo-1,5-dihydro-[1,3]diazepino[5,6-b]quinolin-2-yl) sulfate]	36	150	9.9	370		4100	590	13	1.5	120		2800					
O=C1N2Cc3nc4ccccc4cc3C(C2)N1OS(=O)(=O)[O-].[Na+] (stereo not drawn) [Example 4]											8						
O=C1N2Cc3nc4cnccc4cc3C(C2)N1OS(=O)(=O)[O-].[Na+] (stereo not drawn) [Example 5, sodium (1,4-methano-3-oxo-1,5-dihydro-[1,3]diazepino[5,6-b][1,7]naphthyridin-2-yl) sulfate]	14	77	14	160		1700	190	1.8	1	100	4	3600					
CCN(CC)C(=O)N1CCc2sc3c(c2C1)CN1CC3N(OS(=O)(=O)O)C1=O (stereo not drawn) [Example 7, sodium [9-(diethylcarbamoyl)-2,5-methano-3-oxo-5,7,8,10-tetrahydro-1H-pyrido[3,4]thieno[1,3-d][1,3]diazepin-4-yl] sulfate]		13	1.3	26		5100	110	14	6.8		> 32	550	43				
O=C1N2Cc3c(sc4c3CNCC4)C(C2)N1OS(=O)(=O)O (stereo not drawn) [Example 8, (2,5-methano-3-oxo-1,5,7,8,9,10-hexahydropyrido[2,3]thieno[2,4-d][1,3]diazepin-4-yl) hydrogen Sulfate]	9.6	26	6.1	1300		15000	840	30	18	1600	1	8600					
Cn1c2c(c3scnc31)C1CN(C2)C(=O)N1OS(=O)(=O)O (stereo not drawn) [Example 9, sodium (6,9-methano-4-methyl-7-oxo-5,9-dihydrothiazolo[3,4]pyrrolo[1,3-d][1,3]diazepin-8-yl) sulfate]		0.57			590		62	0.94		120	> 32		0.49	1.1	26	290	1.2
